# According to US20070259866A1, “Method of Adenovirus, HIV and HPV Prophylaxis” (priority 1999, published 2007):
# “And” between values parts separate entries of the source, which are not always exact repeats. Equal values may be shown once.
# What was measured:
# adenovirus = assay: Inhibition of adenovirus infection in 293T cells in vitro; assay type: cell-based
# Text: Compound 96 inhibited adenovirus infection 100% in 293T cells in vitro.
# [1] = system: NL-HX-ADA (macrophage-tropic isolate) Virus; assay: Inactivation of HIV stock by 1 hr drug treatment, then PBMC infection, fluorescent focus assay (NL-HX-ADA); assay type: cell-based, Human Immunodeficiency Virus (HIV); conditions: for Average # infected cells/area / # infected cells/area (~500 cells): 4 days; for # infected cells/area (~500 cells): single area counts
# Description: (§1) In a study of the prophylactic effects of Compound 96 on Human Immunodeficiency Virus (HIV), virus stock solutions were inactivated by treatment with Compound 96. Stock solutions of viral types NL-HX-ADA having a p24 concentration of 4.1 μg/ml and NL-HX (P122) having a p24 concentration of 3.8 μg/ml were used for the study, along with a stock solution of Compound 96 having a concentration of 20 mg/ml in RPMI media.
# (§2) Concentrated stock solution of viruses were treated for 1 hr with equal volume of medium containing the drug at the following concentrations:
# (§3) After the 1 hr treatment period, the virus-drug solutions were diluted 1:1,000 with complete medium, and then mixed with an equal volume of Peripheral Blood Mononucleocyte (PBMC) cells, for a final dilution of virus and drug of 1:4,000.
# (§4) The infected cultures were then incubated without any washing or other changes in media for 4 days (for the M-tropic NL-HX-ADA type) and 8 days (for the T-tropic NL-HX type). The cultures were then assayed for infection using standard fluorescent focus assays to quantitate infected cells.
# [2] = system: NL-HX (T cell-tropic isolate) Virus; assay: Inactivation of HIV stock by 1 hr drug treatment, then PBMC infection, fluorescent focus assay (NL-HX); assay type: cell-based, Human Immunodeficiency Virus (HIV); conditions: for Average # infected cells/area / # infected cells/area (~500 cells): 8 days; for # infected cells/area (~500 cells): single area counts
# Description: as §1, §2, §3, §4
# [3] = system: NL-HX-ADA (macrophage-tropic isolate) Virus; assay: Control infections: untreated NL-HX-ADA virus added to PBMC cultures containing the final dilution of the drug; assay type: cell-based, Human Immunodeficiency Virus (HIV); conditions: for Control culture: # infected cells/area (~500 cells) / Control culture: Average # infected cells/area: untreated virus; for Control culture: # infected cells/area (~500 cells): single area counts
# Description: as §3, §4
# (§5) Control infections were performed by adding untreated viruses at a p24 concentration of 1 ng/ml into cultures containing the final dilution of the drug. This controlled for any residual effect the diluted drug may have on the health of the PBMC culture and their ability to replicate virus.
# [4] = system: NL-HX (T cell-tropic isolate) Virus; assay: Control infections: untreated NL-HX virus added to PBMC cultures containing the final dilution of the drug; assay type: cell-based, Human Immunodeficiency Virus (HIV); conditions: for Control culture: # infected cells/area (~500 cells) / Control culture: Average # infected cells/area: untreated virus; for Control culture: # infected cells/area (~500 cells): single area counts
# Description: as §3, §4, §5
# [5] = system: NL-HX-ADA (molecularly cloned macrophage-tropic type of HIV-1); assay: Extended dose response for inactivation of HIV-1 by CTC96, fluorescent focus assay in PBMCs; assay type: cell-based; conditions: 1 hour
# Description: (§6) • Stock virus: NL-HX-ADA ˜5.5 μg/ml p24 (This is a molecularly cloned macrophage-tropic type of HIV-1). Virus was used to infect cells at 1:4,000 final dilution (˜1.4 ng/ml p24). Stock CTC-96: 10 mg/ml prepared directly in RPMI 1640 Method: Concentrated stock solution of virus was treated for 1 hour with equal volume of medium containing the drug at the indicated concentrations (1:2 dilution). The virus/drug mixture was then diluted 1,000-fold (1:2,000 dilution) and then added to an equal volume of PHA-activated humans PBMCs (1:4,000 final dilution) to allow virus replication to occur. The extent of infection was measured after 4 days by a fluorescent focus assay and compared to that of a control culture not containing any drug.
# [6] = system: NL-HX-ADA (molecularly cloned macrophage-tropic type of HIV-1); assay: Time course of anti-HIV effect of CTC96 (neutralization vs contact time); assay type: cell-based
# Description: as §6
# Using similar conditions as described above, virus was incubated with 0.625 mg/ml CTC96 for the indicated time period before 1,000-fold dilution and addition to cells.
# Virus was incubated with four different concentrations of CTC96 for the indicated time periods, and then the extent of inactivation tested as previously described. Numbers in parentheses indicate results obtained in the initial analysis for the lowest dose ([…]) of CTC96.
# [7] = any drug-treated sample vs control infection (800-1200 infected cells per well)
# [8] = any of the drug-treated samples
# [9] = even at the lowest concentration of drug tested (0.625 mg/ml), 1 hr treatment
# [10] = virus treated 1 hr at 0.625 mg/ml
# [11] = virus treated 1 hr at 1.25 mg/ml
# [12] = virus treated 1 hr at 2.5 mg/ml
# [13] = even at the highest concentration tested (5 μg/ml)
# [14] = culture with final dilution of the 0.625 mg/ml (residual 0.3 μg/ml)
# [15] = culture with final dilution of the 1.25 mg/ml (residual 0.6 μg/ml)
# [16] = culture with final dilution of the 2.5 mg/ml column (residual 1.25 μg/ml)
# [17] = culture with final dilution of the 5 mg/ml column (residual 2.5 μg/ml)
# [18] = culture with final dilution of the 10 mg/ml column (residual 5 μg/ml)
# [19] = final dilution of the 0.625 mg/ml column (residual 0.3 μg/ml)
# [20] = final dilution of the 1.25 mg/ml column (residual 0.6 μg/ml)
# [21] = final dilution of the 2.5 mg/ml column (residual 1.25 μg/ml)
# [22] = final dilution of the 5 mg/ml column (residual 2.5 μg/ml)
# [23] = final dilution of the 10 mg/ml column (residual 5 μg/ml)
# [24] = [CTC96] 0.625 μg/ml, contact time 2 minutes
# [25] = [CTC96] 0.625 μg/ml, contact time 4 minutes
# [26] = [CTC96] 0.625 μg/ml, contact time 8 minutes
# [27] = [CTC96] 0.625 μg/ml, contact time 16 minutes
# [28] = [CTC96] 0.625 μg/ml, contact time 32 minutes
# [29] = [CTC96] 0.625 μg/ml, contact time 64 minutes
smiles,measurement,setting,value
CC1=CC(C)=[N+]2CC[N+]3=C(C)C=C(C)[O][Co-4]23([n+]2cc[nH]c2C)([n+]2cc[nH]c2C)[O]1.[Br-] [Compound 96],inhibited adenovirus infection,adenovirus,100%
same,reduction in infectivity,[1]; [7],"≥ 1,000 fold"
same,infected cells when the entire well was scanned,[1]; [8],No infected cells were detected
same,inactivation of treated virus,[1]; [9],completely inactivated
same,Average # infected cells/area,[1]; [10],0 cells/area
same,# infected cells/area (~500 cells),[1]; [10],0 cells/area
same,Average # infected cells/area,[1]; [11],0 cells/area
same,# infected cells/area (~500 cells),[1]; [11],0 cells/area
same,Average # infected cells/area,[1]; [12],0 cells/area
same,# infected cells/area (~500 cells),[1]; [12],0 cells/area
same,Average # infected cells/area,[1]; virus treated 1 hr at 5 mg/ml,0 cells/area
same,# infected cells/area (~500 cells),[1]; virus treated 1 hr at 5 mg/ml,0 cells/area
same,Average # infected cells/area,[1]; virus treated 1 hr at 10 mg/ml,0 cells/area
same,# infected cells/area (~500 cells),[1]; virus treated 1 hr at 10 mg/ml,0 cells/area
same,reduction in infectivity,[2]; [7],"≥ 1,000 fold"
same,infected cells when the entire well was scanned,[2]; [8],No infected cells were detected
same,inactivation of treated virus,[2]; [9],completely inactivated
same,Average # infected cells/area,[2]; [10],0 cells/area
same,# infected cells/area (~500 cells),[2]; [10],0 cells/area
same,Average # infected cells/area,[2]; [11],0 cells/area
same,# infected cells/area (~500 cells),[2]; [11],0 cells/area
same,Average # infected cells/area,[2]; [12],0 cells/area
same,# infected cells/area (~500 cells),[2]; [12],0 cells/area
same,Average # infected cells/area,[2]; virus treated 1 hr at 5 mg/ml,0 cells/area
same,# infected cells/area (~500 cells),[2]; virus treated 1 hr at 5 mg/ml,0 cells/area
same,Average # infected cells/area,[2]; virus treated 1 hr at 10 mg/ml,0 cells/area
same,# infected cells/area (~500 cells),[2]; virus treated 1 hr at 10 mg/ml,0 cells/area
same,toxicity or inhibition in control cultures receiving the diluted drugs,[3]; [13],No toxicity or inhibition
same,Control culture: # infected cells/area (~500 cells),[3]; [14],17 cells/area and 16 cells/area and 18 cells/area
same,Control culture: # infected cells/area (~500 cells),[3]; [15],16 cells/area and 15 cells/area and 17 cells/area and 18 cells/area
same,Control culture: # infected cells/area (~500 cells),[3]; [16],17 cells/area and 18 cells/area and 15 cells/area and 16 cells/area
same,Control culture: # infected cells/area (~500 cells),[3]; [17],16 cells/area and 17 cells/area and 15 cells/area and 18 cells/area
same,Control culture: # infected cells/area (~500 cells),[3]; [18],15 cells/area and 16 cells/area and 17 cells/area
same,Control culture: Average # infected cells/area,[3]; [19],16.50 cells/area
same,Control culture: Average # infected cells/area,[3]; [20],16.38 cells/area
same,Control culture: Average # infected cells/area,[3]; [21],16.50 cells/area
same,Control culture: Average # infected cells/area,[3]; [22],16.25 cells/area
same,Control culture: Average # infected cells/area,[3]; [23],16.00 cells/area
same,toxicity or inhibition in control cultures receiving the diluted drugs,[4]; [13],No toxicity or inhibition
same,Control culture: # infected cells/area (~500 cells),[4]; [14],11 cells/area and 10 cells/area
same,Control culture: # infected cells/area (~500 cells),[4]; [15],9 cells/area and 8 cells/area and 11 cells/area and 10 cells/area
same,Control culture: # infected cells/area (~500 cells),[4]; [16],10 cells/area and 11 cells/area
same,Control culture: # infected cells/area (~500 cells),[4]; [17],10 cells/area and 8 cells/area and 9 cells/area
same,Control culture: # infected cells/area (~500 cells),[4]; [18],10 cells/area and 9 cells/area and 11 cells/area
same,Control culture: Average # infected cells/area,[4]; [19],10.3 cells/area
same,Control culture: Average # infected cells/area,[4]; [20],9.5 cells/area
same,Control culture: Average # infected cells/area,[4]; [21],10.3 cells/area
same,Control culture: Average # infected cells/area,[4]; [22],8.8 cells/area
same,Control culture: Average # infected cells/area,[4]; [23],9.8 cells/area
same,% Neutralization,[5]; Batch A: [CTC96] during incubation with virus 5 mg/ml (initial 10 mg/ml; after final dilution 2.5 ng/ml),100%
same,% Neutralization,[5]; Batch B: [CTC96] during incubation with virus 2.5 mg/ml (initial 5 mg/ml; after final dilution 1.25 ng/ml),100%
same,% Neutralization,[5]; Batch C: [CTC96] during incubation with virus 1.25 mg/ml (initial 2.5 mg/ml; after final dilution 0.61 ng/ml),100%
same,% Neutralization,[5]; Batch D: [CTC96] during incubation with virus 0.625 mg/ml (initial 1.25 mg/ml; after final dilution 0.31 ng/ml),100%
same,% Neutralization,[5]; Batch E: [CTC96] during incubation with virus 0.312 mg/ml (initial 0.6 mg/ml; after final dilution 0.156 ng/ml),83%
same,% Neutralization,[5]; Batch F: [CTC96] during incubation with virus 0.156 mg/ml (initial 0.3 mg/ml; after final dilution 0.078 ng/ml),63%
same,% Neutralization,[5]; Batch G: [CTC96] during incubation with virus 0.078 mg/ml (initial 0.156 mg/ml; after final dilution 0.039 ng/ml),55%
same,% Neutralization,[5]; Batch H: [CTC96] during incubation with virus 0.039 mg/ml (initial 0.078 mg/ml; after final dilution 0.019 ng/ml),18%
same,% Neutralization,[5]; Batch I: [CTC96] during incubation with virus 0.019 mg/ml (initial 0.039 mg/ml; after final dilution 0.009 ng/ml),1%
same,% Neutralization,[5]; Batch J: [CTC96] during incubation with virus 0.009 mg/ml (initial 0.019 mg/ml; after final dilution 0.0045 µg/ml),2%
same,% Neutralization,[5]; Batch K: [CTC96] during incubation with virus 0.0045 mg/ml (initial 0.009 mg/ml; after final dilution 0.0023 ng/ml),1%
same,% Neutralization,[6]; [24],15%
same,% Neutralization,[6]; [25],25%
same,% Neutralization,[6]; [26],41%
same,% Neutralization,[6]; [27],56%
same,% Neutralization,[6]; [28],65%
same,% Neutralization,[6]; [29],80%
same,% Neutralization,"[6]; [CTC96] 1.25 μg/ml, contact time 2 minutes",4%
same,% Neutralization,"[6]; [CTC96] 1.25 μg/ml, contact time 4 minutes",17%
same,% Neutralization,"[6]; [CTC96] 1.25 μg/ml, contact time 8 minutes",42%
same,% Neutralization,"[6]; [CTC96] 1.25 μg/ml, contact time 16 minutes",61%
same,% Neutralization,"[6]; [CTC96] 1.25 μg/ml, contact time 32 minutes",78%
same,% Neutralization,"[6]; [CTC96] 1.25 μg/ml, contact time 64 minutes",94%
same,% Neutralization,"[6]; [CTC96] 2.5 μg/ml, contact time 2 minutes",21%
same,% Neutralization,"[6]; [CTC96] 2.5 μg/ml, contact time 4 minutes",25%
same,% Neutralization,"[6]; [CTC96] 2.5 μg/ml, contact time 8 minutes",47%
same,% Neutralization,"[6]; [CTC96] 2.5 μg/ml, contact time 16 minutes",72%
same,% Neutralization,"[6]; [CTC96] 2.5 μg/ml, contact time 32 minutes",86%
same,% Neutralization,"[6]; [CTC96] 2.5 μg/ml, contact time 64 minutes",100%
same,% Neutralization,"[6]; [CTC96] 5 μg/ml, contact time 2 minutes",37%
same,% Neutralization,"[6]; [CTC96] 5 μg/ml, contact time 4 minutes",52%
same,% Neutralization,"[6]; [CTC96] 5 μg/ml, contact time 8 minutes",65%
same,% Neutralization,"[6]; [CTC96] 5 μg/ml, contact time 16 minutes",78%
same,% Neutralization,"[6]; [CTC96] 5 μg/ml, contact time 32 minutes",98%
same,% Neutralization,"[6]; [CTC96] 5 μg/ml, contact time 64 minutes",100%
same,% Neutralization (in parentheses: initial analysis),[6]; [24],7%
same,% Neutralization (in parentheses: initial analysis),[6]; [25],43%
same,% Neutralization (in parentheses: initial analysis),[6]; [26],56%
same,% Neutralization (in parentheses: initial analysis),[6]; [27],64%
same,% Neutralization (in parentheses: initial analysis),[6]; [28],76%
same,% Neutralization (in parentheses: initial analysis),[6]; [29],100%
